{"source": "patent US20070184017A1", "about": "“Anti-aging treatment using copper and zinc compositions” (priority 2006, published 2007)", "tested_on": "wrinkling on face", "test": "Gel composition applied to wrinkled face twice daily (Example 1)", "format": "in vivo, human", "settings": "person", "text": "A person is suffering from wrinkling on their face. A gel composition suitable for treatment of skin containing an effective amount of copper-zinc malonate active ingredient is routinely applied to their face twice daily."}
{"substance": "copper-zinc malonate", "values": [{"measurement": "wrinkling on face", "value": "reduced or eliminated"}]}
